{"source": "patent US6479070B1", "about": "“Compositions containing pinolenic acid and its use as a health component” (Unilever Patent Holdings, priority 1999, dated 2002)", "tested_on": "PMA stimulated PGE2 Levels in Human Skin Fibroblasts", "details": "primary human foreskin fibroblasts, pinolenic acid even at levels of 10 ng/ml, 24 h pre-incubation", "method": "A reduction of the levels of ICAM and PGE2 is indicative for the anti-inflammatory effect. Primary human foreskin fibroblasts at passage 2 (P2) were seeded into 96-well plates at 10000 cells/well and maintained for 24 hours in an atmosphere of 5% carbon dioxide in Dulbeccos Modified Eagles Medium (DMEM) supplemented with 10% foetal calf serum. […] PMA represents an external stressor which induces oxidative stress and inflammatory responses in cells. The fibroblasts/media were then analysed as described below immediately or snap frozen in liquid nitrogen and stored at −70° C. for future analysis. […] PGE2 levels in the medium were determined with a Biotrak PGE2 immunoassay kit (Amersham, UK). The assay is based on the competition between unlabelled PGE2 in the sample and a fixed quantity of horseradish peroxidase labelled PGE2 for a limited amount of fixed PGE2 specific antibody. Concentrations of unlabelled sample PGE2 are determined according to a standard curve which was obtained at the same time."}
{"smiles": "CCCCC/C=C\\C/C=C\\CC/C=C\\CCCC(=O)O", "note": "[Pinolenic acid, 5,9,12 C18:3 fatty acid]", "values": [{"measurement": "inflammatory response as measured by PGE2 production", "value": "dramatically reduces the inflammatory response"}]}
